Measurements from patent US8802597B2, “Herbicidal pyrimidines” (E I du Pont de Nemours and Company, priority 2003, dated 2014).

Experiments:
Experiment in all cases: Test G pre/postemergence
Format in all cases: in vivo
[1] = tested on: bermudagrass (Cynodon dactylon)
How it was run: (§1)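 Greenhouse pre/postemergence screen with surfactant-containing solvent formulation; postemergence plants were 1- to 4-leaf stage. Percent control (0–100) was judged by eye against controls after 12–21 days.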

[2] = tested on: green foxtail (Setaria viridis)
How it was run: as §1

[3] = tested on: quackgrass (Elytrigia repens)
How it was run: as §1

[4] = tested on: common chickweed (Stellaria media)
How it was run: as §1

[5] = tested on: johnsongrass (Sorghum halepense); conditions: Preemergence, scale 0-100
How it was run: as §1

[6] = tested on: black mustard (Brassica nigra)
How it was run: as §1

[7] = tested on: annual bluegrass (Poa annua)
How it was run: as §1

[8] = tested on: itchgrass (Rottboellia cochinchinensis)
How it was run: as §1

[9] = tested on: southern sandbur (Cenchrus echinatus)
How it was run: as §1

[10] = tested on: Italian ryegrass (Lolium multiflorum)
How it was run: as §1

[11] = tested on: dallisgrass (Paspalum dilatatum)
How it was run: as §1

[12] = tested on: pitted morningglory (Ipomoea lacunosa)
How it was run: as §1

[13] = tested on: Surinam grass (Brachiaria decumbens)
How it was run: as §1

[14] = tested on: common mallow (Malva sylvestris)
How it was run: as §1

[15] = Postemergence, 250 g ai/ha, scale 0 to 100
[16] = Postemergence, 16 g ai/ha, scale 0 to 100
[17] = Postemergence, 31 g ai/ha, scale 0 to 100
[18] = Postemergence, 62 g ai/ha, scale 0 to 100
[19] = Postemergence, 125 g ai/ha, scale 0 to 100
[20] = Preemergence, 16 g ai/ha, scale 0-100
[21] = Preemergence, 31 g ai/ha, scale 0-100
[22] = Preemergence, 62 g ai/ha, scale 0-100
[23] = Preemergence, 125 g ai/ha, scale 0-100
[24] = Preemergence, 250 g ai/ha, scale 0-100

Nc1nc(C2CC2)nc(C(=O)OCc2ccccc2)c1Br [Compound 22, phenylmethyl 6-amino-5-bromo-2-cyclopropyl-4-pyrimidinecarboxylate]
100: Plant response rating, Chickweed [4, 24] | Plant response rating, Morningglory [12, 15]
20: Plant response rating, Foxtail, Green [2, 24] | Plant response rating, Quackgrass [3, 22] | Plant response rating, Quackgrass [3, 23] | Plant response rating, Johnsongrass ([5]; 62 g ai/ha) | Plant response rating, Itchgrass [8, 22] | Plant response rating, Morningglory [12, 20]
85: Plant response rating, Quackgrass [3, 15] | Plant response rating, Chickweed [4, 19] | Plant response rating, Itchgrass [8, 15] | Plant response rating, Sandbur [9, 19] | Plant response rating, Sandbur [9, 24] | Plant response rating, Ryegrass, Italian [10, 15] | Plant response rating, Morningglory [12, 17] | Plant response rating, Morningglory [12, 18] | Plant response rating, Mallow [14, 19]
0: Plant response rating, Bermudagrass [1, 20] | Plant response rating, Bermudagrass [1, 21] | Plant response rating, Bermudagrass [1, 22] | Plant response rating, Bermudagrass [1, 23] | Plant response rating, Foxtail, Green [2, 16] | Plant response rating, Foxtail, Green [2, 20] | Plant response rating, Foxtail, Green [2, 21] | Plant response rating, Foxtail, Green [2, 22] | Plant response rating, Quackgrass [3, 20] | Plant response rating, Quackgrass [3, 21] | Plant response rating, Chickweed [4, 20] | Plant response rating, Johnsongrass ([5]; 16 g ai/ha) | Plant response rating, Johnsongrass ([5]; 31 g ai/ha) | Plant response rating, Bluegrass [7, 16] | Plant response rating, Bluegrass [7, 17] | Plant response rating, Bluegrass [7, 20] | Plant response rating, Bluegrass [7, 21] | Plant response rating, Bluegrass [7, 22] | Plant response rating, Itchgrass [8, 20] | Plant response rating, Itchgrass [8, 21] | Plant response rating, Sandbur [9, 16] | Plant response rating, Sandbur [9, 20] | Plant response rating, Sandbur [9, 21] | Plant response rating, Sandbur [9, 22] | Plant response rating, Ryegrass, Italian [10, 16] | Plant response rating, Ryegrass, Italian [10, 20] | Plant response rating, Ryegrass, Italian [10, 21] | Plant response rating, Ryegrass, Italian [10, 22] | Plant response rating, Ryegrass, Italian [10, 23] | Plant response rating, Dallisgrass [11, 16] | Plant response rating, Dallisgrass [11, 17] | Plant response rating, Dallisgrass [11, 20] | Plant response rating, Dallisgrass [11, 21] | Plant response rating, Dallisgrass [11, 22] | Plant response rating, Surinam Grass [13, 16] | Plant response rating, Surinam Grass [13, 20] | Plant response rating, Surinam Grass [13, 21] | Plant response rating, Surinam Grass [13, 22]
65: Plant response rating, Bermudagrass [1, 15] | Plant response rating, Quackgrass [3, 18] | Plant response rating, Black Mustard [6, 23] | Plant response rating, Itchgrass [8, 24] | Plant response rating, Surinam Grass [13, 19]
70: Plant response rating, Sandbur [9, 23]
35: Plant response rating, Bermudagrass [1, 17] | Plant response rating, Bermudagrass [1, 18] | Plant response rating, Black Mustard [6, 21] | Plant response rating, Surinam Grass [13, 18] | Plant response rating, Surinam Grass [13, 23]
10: Plant response rating, Foxtail, Green [2, 23]
50: Plant response rating, Foxtail, Green [2, 19] | Plant response rating, Chickweed [4, 17] | Plant response rating, Chickweed [4, 18] | Plant response rating, Chickweed [4, 21] | Plant response rating, Johnsongrass ([5]; 125 g ai/ha) | Plant response rating, Black Mustard [6, 16] | Plant response rating, Itchgrass [8, 18] | Plant response rating, Ryegrass, Italian [10, 24] | Plant response rating, Dallisgrass [11, 24] | Plant response rating, Morningglory [12, 16] | Plant response rating, Morningglory [12, 21] | Plant response rating, Mallow [14, 20] | Plant response rating, Mallow [14, 21]
5: Plant response rating, Ryegrass, Italian [10, 17]
95: Plant response rating, Chickweed [4, 15] | Plant response rating, Black Mustard [6, 15] | Plant response rating, Black Mustard [6, 19] | Plant response rating, Sandbur [9, 15] | Plant response rating, Morningglory [12, 19] | Plant response rating, Surinam Grass [13, 15] | Plant response rating, Mallow [14, 15]
90: Plant response rating, Chickweed [4, 23] | Plant response rating, Morningglory [12, 23] | Plant response rating, Morningglory [12, 24] | Plant response rating, Surinam Grass [13, 24]
40: Plant response rating, Bermudagrass [1, 19] | Plant response rating, Quackgrass [3, 17] | Plant response rating, Bluegrass [7, 19] | Plant response rating, Itchgrass [8, 23] | Plant response rating, Sandbur [9, 18] | Plant response rating, Ryegrass, Italian [10, 19] | Plant response rating, Dallisgrass [11, 23] | Plant response rating, Mallow [14, 16]
80: Plant response rating, Johnsongrass ([5]; 250 g ai/ha) | Plant response rating, Mallow [14, 23] | Plant response rating, Mallow [14, 24]
75: Plant response rating, Foxtail, Green [2, 15] | Plant response rating, Quackgrass [3, 19] | Plant response rating, Black Mustard [6, 17] | Plant response rating, Black Mustard [6, 18] | Plant response rating, Black Mustard [6, 24] | Plant response rating, Bluegrass [7, 15] | Plant response rating, Itchgrass [8, 19] | Plant response rating, Dallisgrass [11, 15] | Plant response rating, Mallow [14, 22]
15: Plant response rating, Bermudagrass [1, 16] | Plant response rating, Foxtail, Green [2, 17] | Plant response rating, Quackgrass [3, 16] | Plant response rating, Bluegrass [7, 18] | Plant response rating, Itchgrass [8, 16] | Plant response rating, Sandbur [9, 17] | Plant response rating, Ryegrass, Italian [10, 18] | Plant response rating, Dallisgrass [11, 18] | Plant response rating, Surinam Grass [13, 17]
30: Plant response rating, Bermudagrass [1, 24] | Plant response rating, Quackgrass [3, 24] | Plant response rating, Black Mustard [6, 20] | Plant response rating, Bluegrass [7, 23]
60: Plant response rating, Black Mustard [6, 22] | Plant response rating, Bluegrass [7, 24] | Plant response rating, Morningglory [12, 22] | Plant response rating, Mallow [14, 17]
25: Plant response rating, Foxtail, Green [2, 18] | Plant response rating, Itchgrass [8, 17] | Plant response rating, Dallisgrass [11, 19]
